Data on 113 compounds can be found in a melting point compilation (Tetko et al.).

Structures are written as SMILES.

The melting point is the temperature, or range, at which the solid turns liquid. `CCc1nc(N)nc(O)c1C` came in with a melting point of 303 to 304 °C.

Consider `CCOc1cc(C(=S)N2CCCCC2)ccc1OCc1ccccc1`, for which the melting point was determined as 72 °C. The figure for `NNC(=O)C=Cc1ccc(C=CC(=O)NN)cc1` is 258 to 260 °C.

Take `O=C(C=Cc1ccc(-c2ccc(Cl)cc2)o1)c1ccccc1`: the melting point was in the range of 128 to 129 °C. In the case of `O=C(/C=C/c1ccc(OCCCCl)cc1)c1ccccc1`, the melting point came to 74 °C. With `Fc1c(F)c(F)c(I)c(F)c1F` the figure was -29 °C; with `CCCCc1cc2ccccc2c(OCCN(C)C)n1`, 146 °C; with `CC(C)NNC(=O)c1ccncc1`, 150 °C. `Cc1cc(C(=O)O)c(C)n1-c1ccc(Cl)cc1` came in with a melting point of 230 °C.

For the compound `N=c1oc2ccccc2cc1-c1nc2ccccc2c(=O)[nH]1`, the melting point turned out to be 275 °C. The compound `O=Cc1cccc(CBr)c1` yielded a melting point of 49 to 51 °C. Regarding `CC12CCC(C(=O)OC1=O)C2(C)C` (stereo not drawn), the melting point was 221 °C. With `COC(=O)C1=C(C(=O)OC)Cc2cc3c(cc2C1)CC3` the figure was 133 °C; with `CC(C)CC(NC(=O)C(O)C(N)Cc1ccccc1)C(=O)O` (stereo not drawn), 233 °C; with `COc1cc(Br)c(CO)cc1OC`, 95 to 100 °C.

As for `CC(C)(C)NCC(O)c1ccccc1Cl` (stereo not drawn), the melting point was found to be 89 °C. `N#CSCc1c(Cl)cccc1Cl`: the melting point fell in the range of 39 to 42 °C. The figure for `CCc1ccc2cc(O)c(O)cc2c1` is 149 °C. For the compound `Cn1c(C(C#N)c2ncccc2[N+](=O)[O-])nc2ccccc21` (stereo not drawn), the melting point worked out at 214 °C. `C1SSCSSS1` displayed a melting point of 60.5 °C. Compound `CCOC(=O)c1sc(C)nc1-c1ccccc1` had a melting point of 44 to 47 °C.

With `Cc1cc(C)c(C2Oc3c(Cl)c(Cl)c(Cl)c(Cl)c3O2)cc1C`, the melting point stood at 188 °C.

`Cn1nc(-c2ccc(S(=O)(=O)Cl)s2)cc1C(F)(F)F` had a melting point of 83 to 86 °C. With `N#CCCCCCN` the figure was -31.4 °C; with `N#Cc1ccc(F)cc1F`, 46 °C. Consider `Cc1ccc(-c2csc(/C(C#N)=N\Nc3cccc([N+](=O)[O-])c3)n2)cc1`, for which the melting point was determined as 225 °C. Compound `O=C(c1ccccc1)N1CCc2cc3c(cc21)CCN3C(=O)c1ccccc1` had a melting point of 293 to 294 °C. In turn, `Sc1nnc(-c2ccc(Cl)cc2Cl)n1Cc1ccco1` returned a melting point of 158 to 160 °C. With `CCC(C)Cl` (stereo not drawn) the figure was -140 °C. The figure for `O=NN1CCc2ccccc21` is 83 °C; for `N#CC(C#N)=Cc1ccco1` it is 70 to 74 °C; for `COC(=O)c1c(C)c2c(c(C(=O)OC)c1C)CC2=O` it is 117 °C. With `CC(C)(C)c1ccc2cc3ccccc3cc2c1` the figure was 147 °C; with `O=[N+]([O-])c1c(O)ncnc1O`, 300 °C; with `O=C(NC(=S)Nc1ccc(Cl)cc1)c1ccc(-c2ccccc2)cc1`, 165 °C.

With `Cc1ccc2oc(CCC(C)(O)c3ccccc3)c(-c3ccc(C)o3)c2c1` (stereo not drawn), the melting point is 85 °C. With `O=Cc1ccc(SC2CCCCC2)c([N+](=O)[O-])c1` the figure was 94 to 96 °C. `CN1CCN(c2ccccc2C(=O)O)CC1` registered a melting point of 67 to 72 °C. Consider `O=Cc1ccc2[nH]ccc2c1`, for which the melting point was found to be 98 °C. The figure for `COC(=O)c1ccc(OCc2ccccc2)cc1` is 98 °C; for `COC(=O)C(C#N)=Cc1cc(Br)c(O)c(OC)c1` it is 200 °C; for `O=C(O)CCCCc1cccs1` it is 41 °C.

As to `C[C@H](O)C(N)=O`, the melting point was 51 to 55 °C. With `NS(=O)(=O)c1cc2c(cc1Cl)NC(C(Cl)Cl)NS2(=O)=O` (stereo not drawn) the figure was 270 °C; with `COc1c(Cl)c(C)c2c(c1Cl)OC(=O)c1c(C)c(Cl)c(O)c(Cl)c1O2`, 232 °C; with `O=C(O)c1cn(C2CC2)c2cc(Cl)c(F)cc2c1=O`, 239 to 244 °C. The figure for `O=C(O)C(Cl)CCl` (stereo not drawn) is 50 °C. Take `O=C(O)c1ccc(Br)c(C(=O)O)c1`: the melting point was in the range of 297 to 299 °C. The figure for `Cc1c(F)ccc(C(=O)Cl)c1F` is 37 °C. Compound `Cc1cc(C)n(N=Cc2ccccc2Cl)c(=O)c1C#N` came in with a melting point of 233 to 235 °C. With `CCCC(=O)OC` the figure was -84.5 °C; with `O=C1CCCC2C3CCCN4CCCC(CN12)C34` (stereo not drawn), 76 °C; with `c1ccc(CP(c2ccccc2)c2ccccc2)cc1`, 75 °C.

For the compound `CCOC(=O)CC1Sc2ccccc2NC1=S` (stereo not drawn), the melting point is 106 to 108 °C.

`C=C1C(=O)C23C(OC(C)=O)CC4C(C)(C)CCC(OC(C)=O)C4(C=O)C2C(OC(C)=O)CC1C3OC(C)=O` (stereo not drawn) returned a melting point of 212 °C. `Cc1cc(C(F)(F)F)n2nc(N)c(/N=N/c3cc(Cl)c(Cl)cc3Cl)c2n1`: the melting point was 228 °C.

Turning to `Cn1nc(-c2cccs2)cc1N`, the melting point fell in the range of 139 to 140 °C. The figure for `O=C(CBr)c1ccc(OC(F)(F)F)cc1` is 55 to 58 °C. The figure for `CN1CCCC1C(O)(c1ccccc1)c1ccccc1` (stereo not drawn) is 66 to 69 °C. The figure for `CC1=C(C(=O)OCC(C)C)C(c2ccc3c(c2)OCO3)NC(=O)N1` (stereo not drawn) is 178 °C. On to `N[C@@H](CSCc1ccccc1)C(=O)O`, for which the melting point fell in the range of 209 to 214 °C. With `O=Cc1cccc(Br)c1` the figure was 20 °C; with `CC1(c2ccccc2)CC(C(=NO)c2cc3cc(Br)ccc3o2)C1` (stereo not drawn), 134 to 135 °C. With `O=C(CBr)c1cccc(Br)c1` the figure was 51 to 52 °C; with `Cc1cc(C(C)(C)C)c(O)c(C(C)(C)C)c1`, 71 °C; with `O=[N+]([O-])c1ccc(O)cc1O`, 122 °C. The figure for `CC(C)C[C@@H](N)C(=O)O` is 300 °C. In turn, `CCCCCCOCCCCCC` registered a melting point of -43 °C. In turn, `Cc1nc(/C(C#N)=C\c2ccc(Cl)cc2Cl)sc1/N=N/c1ccc(F)cc1` returned a melting point of 138 to 140 °C. With `C=CCc1cc(Cl)ccc1O` the figure was 48 °C; with `CC1(C)OC(=O)C(=NNc2ccc(C(=O)O)cc2)C(=O)O1`, 223 °C. The compound `CC(Cc1ccccc1)NC(C#N)c1ccccc1` (stereo not drawn) gave a melting point of 85 °C.

`O=Cc1cccc(Cn2cncn2)c1` had a melting point of 54 to 56 °C. With `COP(=S)(OC)Oc1cc(Cl)c(I)cc1Cl` the figure was 76 °C; with `COC(=O)c1nc[nH]c1C(=O)OC`, 197 to 201 °C; with `C=C1CC(=O)OC1=O`, 69 °C. The figure for `C=C(C)C=O` is -81 °C. The compound `COc1ccc(C(=O)C=Cc2ccccc2)c(O)c1` had a melting point of 106 to 108 °C. For `COc1cc(C=O)cc(Br)c1O`, the melting point fell in the range of 164 to 166 °C. Compound `BrCc1ccc(OC2CCOCC2)cc1` had a melting point of 56 to 58 °C. `CN(C)CCCN` displayed a melting point of -60 °C. The figure for `C#CCCCCCCC(=O)O` is 19 °C.

The compound `CSc1sc(C(N)=S)c2c1C(=O)CCC2` registered a melting point of 232 to 233 °C. With `CCCCNC(=O)C(c1cc2ccccc2c2ccccc12)N(Cc1ccco1)C(=O)Cc1ccccc1` (stereo not drawn) the figure was 185 °C. On to `C[C@]12CCC(=O)C=C1CCC2=O`, for which the melting point fell in the range of 55 to 64 °C. Compound `O=C(O)c1cc(F)ccc1C(F)(F)F` gave a melting point of 82 °C. The figure for `c1cnc2ncncc2n1` is 140 °C; for `CCCOC(=O)c1ccccc1` it is -51.6 °C; for `O=Cc1csc2ccccc12` it is 56 to 58 °C.

In the case of `CCCC(C)c1ccccc1` (stereo not drawn), the melting point is -70 °C.

Turning to `O=C1c2ccccc2CC2CCCCN12` (stereo not drawn), the melting point amounted to 97 °C. The figure for `COc1cc(O)ccc1C=O` is 158 °C; for `Cc1cc2c(ccc3nonc32)nn1` it is 167 to 169 °C. On to `COC(=O)c1cccc(C(=O)O)c1N`, for which the melting point was in the range of 160 to 167 °C. With `O=C(O)CCOc1ccc(F)cc1` the figure was 84 to 86 °C; with `O=[N+]([O-])c1ccc(O)cc1C(F)(F)F`, 76 °C; with `COC(=O)c1ccc(N)c(Br)c1`, 104 to 108 °C.

The compound `O=Cc1ccc(-n2cccc2)cc1` showed a melting point of 94 to 95 °C.

As to `O=C=Nc1cccc(C(F)(F)F)c1`, the melting point was -26 °C.

Compound `CC(=O)OCC1OC(n2ncc(=O)[nH]c2=O)C(OC(C)=O)C1OC(C)=O` (stereo not drawn) yielded a melting point of 99 to 101 °C. The figure for `CCCCCCCCCCc1cc(-c2cc(-c3ccccc3)c3ccccc3n2)sc1-c1sc(-c2cc(-c3ccccc3)c3ccccc3n2)cc1CCCCCCCCCC` is 21.9 °C; for `ClCC(Cl)C(Cl)=C(Cl)C(Cl)CCl` (stereo not drawn) it is 58.5 °C. In turn, `Cc1c(Cl)cccc1Nc1ncccc1C(=O)O` had a melting point of 234 °C.

Compound `O=C(Cl)c1cccc(-c2ncccn2)c1` displayed a melting point of 136 to 137 °C. `O=c1[nH]c2ccc(S(=O)(=O)CCO)cc2o1` had a melting point of 207 to 211 °C.

As to `CCOC(CC(OCC)OCC)OCC`, the melting point was -90 °C. With `CC(C)COC(=O)C(C)Oc1ccc(Oc2ccc(Cl)cc2)cc1` (stereo not drawn) the figure was 39.5 °C. For `CC(C)(C)N(NC(=O)c1ccccc1)C(=O)c1ccccc1`, the melting point was found to be 178 °C. `c1ccc2c(c1)NC1(CCCC1)O2`: the melting point came out at 221 °C.

In turn, `CC(=O)C(=Cc1ccc(-c2ccccc2[N+](=O)[O-])o1)C(C)=O` registered a melting point of 127 to 128 °C. As to `c1ccc(-c2ccncc2)cc1`, the melting point was found to be 77.5 °C. The figure for `Cc1nc(=O)c2ccccc2[nH]1` is 232 °C. With `Cc1nn(C)c(NC(=O)CCl)c1Br` the figure was 151 to 153 °C.
